Laboratory results published in patent publication US20240246920A1, “TRIAZOLE DERIVATIVES WITH ANTIFUNGAL ACTIVITY” (King's College London, priority 2020, published 2024).
Converted amounts (≈) assume the structure as drawn. Like-named read-outs stand apart in the source and are kept apart here.

What was measured:
[1] = system: C. albicans NCPF3281; assay: Candida panel MIC, serial dilution in 96-well plates; type: cell-based, Candida albicans; details: NCPF3281, read-out: MIC C. albicans NCPF3281
How it was run: (§1)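 Broth microdilution in RPMI 1640 with 2% glucose and MOPS at pH 7.0, compound 128 to 0.25 μg/mL, inoculum 0.5-5×10^5/mL. Incubation 24 h at 37 °C. MIC is the lowest concentration giving ≥50% growth inhibition versus drug-free control, read at OD530.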

[2] = system: C. glabrata NCPF8018; assay: as above; type: cell-based, Candida glabrata; details: Nakaseomyces glabratus
How it was run: (§2)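 MIC taken as lowest concentration inhibiting growth ≥50% relative to drug-free control, from OD530 after 24 hours at 37° C. Fungi at 0.5-5×10^5/mL were exposed to serially diluted compound in RPMI 1640/MOPS/2% glucose medium adjusted to pH 7.0.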

[3] = system: C. krusei NCPF3876; assay: microbe, parasite or virus in culture; type: cell-based, Candida krusei; details: Pichia kudriavzevii
How it was run: as §2

[4] = system: C. parapsilosis NCPF3209; assay: microbe, parasite or virus in culture; type: cell-based, Candida parapsilosis; details: Lodderomyces parapsilosis
How it was run: as §2

[5] = system: Candida auris TDG2211; assay: microbe, parasite or virus in culture; type: cell-based; details: Candidozyma auris, TDG2211; Table 4, extended panel; 24 hours, ≥50% inhibition; read-out: MIC Candida auris TDG2211
How it was run: (§3)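 Starter cultures grown overnight at 37° C in RPMI 1640/MOPS/2% glucose, pH 7.0; inoculum 0.5-5×10^5/mL with compound serially diluted from DMSO into media.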

[6] = system: Candida auris TDG2506; assay: microbe, parasite or virus in culture; type: cell-based; details: Candidozyma auris, TDG2506; Table 4, extended panel; 24 hours, ≥50% inhibition; read-out: MIC Candida auris TDG2506
How it was run: as §3

[7] = system: C. auris TDG1912; assay: Candida panel MIC, serial dilution in 96-well plates; type: cell-based; details: Candidozyma auris, TDG1912; Table 4; 24 hours, ≥50% inhibition; read-out: MIC C. auris TDG1912
How it was run: as §1

[8] = system: C. tropicalis NCPF8760; assay: as above; type: cell-based
How it was run: as §1

[9] = system: Candida auris TDG1102; assay: as above; type: cell-based; details: Candidozyma auris, read-out: MIC Candida auris TDG1102
How it was run: as §1

[10] = system: Candida auris TDG2512; assay: as above; type: cell-based; details: Candidozyma auris, TDG2512; Table 4, extended panel; 24 hours, ≥50% inhibition; read-out: MIC Candida auris TDG2512
How it was run: as §1

[11] = system: C. auris 8971; assay: as above; type: cell-based, Candida auris; details: Candidozyma auris, 8971; Table 4, extended panel; 24 hours, ≥50% inhibition; read-out: MIC C. auris 8971
How it was run: as §3

[12] = system: C. auris 8977; assay: as above; type: cell-based, Candida auris; details: Candidozyma auris, 8977; Table 4, extended panel; 24 hours, ≥50% inhibition; read-out: MIC C. auris 8977
How it was run: as §3

[13] = system: C. auris 8984; assay: as above; type: cell-based, Candida auris; details: Candidozyma auris, 8984; Table 4, extended panel; 24 hours, ≥50% inhibition; read-out: MIC C. auris 8984
How it was run: as §3

[14] = system: C. albicans 3363; assay: Candida albicans panel MIC; type: cell-based; details: Table 6, Candida albicans panel
Protocol: (§4) The minimum inhibitory concentration of test compounds were determined in a panel of Candida species (see Table 4 below), using the a serial dilution method in 96-well plates using the following protocol.
(§5) Starter cultures of fungal strains to be tested were grown in 3 mL of RPMI 2% glucose media incubated at 37° C. with shaking at 200 rpm overnight. The culture media used was 900 mL H2O; 10.4 g RPMI 1640 (with L-glutamine and a pH indicator but without bicarbonate); 34.5 g MOPS and 18 g glucose. The pH of the media was adjusted to 7.0 with 1 M sodium hydroxide.
(§6) Solutions of the compound to be tested were prepared by dissolving the compound in DMSO and subsequently into media to the desired concentrations. 200 μL of compound solution was then added to the wells of the 96-well plate using a serial dilution method row-by row of the plate to give a compound concentration gradient across the plate of from 128 μg/mL to 0.25 μg/mL. The last two rows of each plate were control rows containing the culture media alone and the media plus fungi.
(§7) The fungi starter cultures were diluted 1:10 in water in cuvettes. This was then further diluted to an optical density (OD600) of 0.01 in media. 100 μL of the fungi was added to each well giving a starting concentration of fungus of 0.5-5×10^5/mL. One species of fungus was used on each plate. The plates were then held at 37° C. for 24 hours.
(§8) A plate reader was used to measure growth in each well at OD530 nm and the MIC was determined for each test compound. The MIC is defined as the lowest concentration giving rise to inhibition of ≥50% of that of the drug-free control well containing the fungus and media.
(§9) The compounds shown in Table 6 were tested against a further panel of Candida albicans.

[15] = system: C. albicans 3645; assay: Candida albicans panel MIC; type: cell-based; details: Table 6, Candida albicans panel
Protocol: as §4, §5, §6, §7, §8, §9

[16] = system: C. albicans 3880; assay: Candida albicans panel MIC; type: cell-based; details: Table 6, Candida albicans panel
Protocol: as §4, §5, §6, §7, §8, §9

[17] = system: C. albicans 3881; assay: Candida albicans panel MIC; type: cell-based; details: Table 6, Candida albicans panel
Protocol: as §4, §5, §6, §7, §8, §9

[18] = system: C. albicans 3882; assay: Candida albicans panel MIC; type: cell-based; details: Table 6, Candida albicans panel
Protocol: as §4, §5, §6, §7, §8, §9

[19] = system: C. albicans 3990; assay: Candida albicans panel MIC; type: cell-based; details: Table 6, Candida albicans panel
Protocol: as §4, §5, §6, §7, §8, §9

[20] = system: C. albicans 8112; assay: Candida albicans panel MIC; type: cell-based; details: Table 6, Candida albicans panel
Protocol: as §4, §5, §6, §7, §8, §9

[21] = system: C. auris strain TDG1912; assay: Galleria mellonella infection model, larval survival; type: in vivo; details: G. mellonella infected with C. auris TDG1912; survival over 120 hours
Protocol: The effects of test compounds in-vivo was assessed using a Galleria mellonella infection model.
G. mellonella were injected in a proleg with 10 μL of C. auris strain TDG1912 (OD4) at a concentration of 1×10^6 cfu/10 μL using a Hamilton syringe and left for 30 minutes to recover from injection and to allow infection to begin. The G. mellonella were then injected with 10 μL of the compound of the invention at either 50 mg/kg (10% DMSO) or 20 mg/kg (4% DMSO) or PBS containing 10% DMSO as an infection-only control. 10 larvae were selected for each treatment, and the experiment was repeated 3 times for the test compound and fluconazole. Survival of larvae was monitored for a 5 day period and results are presented as % survival over 120 hours (see FIG. 1).

[22] = system: Galleria mellonella larvae; assay: Toxicity to larvae in the Galleria mellonella model; type: in vivo; details: dose of 50 mg/kg
[23] = system: panel of Candida species; assay: Candida panel MIC, statements on the whole panel; type: cell-based; details: in words
Protocol: as §4, §5, §6, §7, §8

[24] = system: Aspergillus strains; assay: Aspergillus panel MIC, statement on the whole panel; type: cell-based; details: Table 8, in words
Protocol: The compound of Example 2 (which corresponds to compound number 2) was tested against a panel of Aspergillus strains using a method analogous to that described above for the Candida Panel.

[25] = Candida albicans, Table 4, common panel, 24 hours, ≥50% inhibition
[26] = Table 6, Candida albicans panel
[27] = NCPF8018, Table 4, common panel, 24 hours, ≥50% inhibition, read-out: MIC C. glabrata NCPF8018
[28] = NCPF3876, Table 4, common panel, 24 hours, ≥50% inhibition, read-out: MIC C. krusei NCPF3876
[29] = NCPF3209, Table 4, common panel, 24 hours, ≥50% inhibition, read-out: MIC C. parapsilosis NCPF3209
[30] = NCPF8760, Table 4, common panel, 24 hours, ≥50% inhibition, read-out: MIC C. tropicalis NCPF8760

Structure (SMILES): OC(CN1CCC(Nc2ccc(OCCN3CCOCC3)cc2)CC1)(Cn1cncn1)c1ccc(F)cc1F (centres unmarked) [Example 6, 2-(2,4-Difluorophenyl)-1-(4-((4-(2-morpholinoethoxy)phenyl)amino)piperidin-1-yl)-3-(1H-1,2,4-triazol-1-yl)propan-2-ol]
- MIC [1, 25]: 0.004 µg/mL (≈ 0.00737 µM)
- MIC [1, 26]: ≤ 0.125 µg/mL
- MIC ([2]; NCPF8018, read-out: MIC C. Glabrata NCPF8018): 2 to 4 µg/mL (≈ 3.69 to 7.37 µM)
- MIC [2, 27]: 0.25 µg/mL (≈ 0.461 µM)
- MIC ([3]; NCPF3876, read-out: MIC C. Krusei NCPF3876): 0.125 µg/mL (≈ 0.23 µM)
- MIC [3, 28]: 0.125 µg/mL (≈ 0.23 µM)
- MIC ([4]; NCPF3209, read-out: MIC C. Parapsilosis NCPF3209): 0.015 µg/mL (≈ 0.0276 µM)
- MIC [4, 29]: 0.015 µg/mL (≈ 0.0276 µM)
- MIC [5]: 0.5 µg/mL (≈ 0.921 µM)
- MIC [6]: 0.25 µg/mL (≈ 0.461 µM)
- MIC [7]: 0.125 µg/mL (≈ 0.23 µM)
- MIC [8, 30]: 0.008 µg/mL (≈ 0.0147 µM)
- MIC ([8]; NCPF8760, read-out: MIC C. Tropicalis NCPF8760): 0.008 µg/mL (≈ 0.0147 µM)
- MIC ([9]; TDG1102, Table 4, extended panel, 24 hours, ≥50% inhibition): 0.12 µg/mL (≈ 0.221 µM)
- MIC [10]: 0.015 µg/mL (≈ 0.0276 µM)
- MIC [11]: 0.03 µg/mL (≈ 0.0553 µM)
- MIC [12]: 0.06 µg/mL (≈ 0.111 µM)
- MIC [13]: 0.125 µg/mL (≈ 0.23 µM)
- MIC [14]: 0.25 µg/mL (≈ 0.461 µM)
- MIC [15]: 0.0156 µg/mL (≈ 0.0287 µM)
- MIC [16]: 0.25 µg/mL (≈ 0.461 µM)
- MIC [17]: 0.5 µg/mL (≈ 0.921 µM)
- MIC [18]: 0.5 µg/mL (≈ 0.921 µM)
- MIC [19]: 0.25 µg/mL (≈ 0.461 µM)
- MIC [20]: 0.0156 µg/mL (≈ 0.0287 µM)
- Protection against multi-drug resistant C. auris (larval survival) [21]: statistically significant protection
- Toxicity to the larvae [22]: No toxicity

Structure (SMILES): N#Cc1ccc(-c2ccc(NC3CCN(CC(O)(Cn4cncn4)c4ccc(F)cc4F)CC3)cc2)cc1 (centres unmarked) [Example 2, 4′-((1-(2-(2,4-difluorophenyl)-2-hydroxy-3-(1H-1,2,4-triazol-1-yl)propyl)piperidin-4-yl)amino)-[1,1′-biphenyl]-4-carbonitrile]
- MIC [1, 25]: ≤ 0.0039 µg/mL
- MIC [1, 26]: ≤ 0.0039 µg/mL
- MIC [2, 27]: 0.125 µg/mL (≈ 0.243 µM)
- MIC [3, 28]: 0.003 to 0.125 µg/mL (≈ 0.00583 to 0.243 µM)
- MIC [4, 29]: ≤ 0.003 µg/mL
- MIC [5]: 0.25 µg/mL (≈ 0.486 µM)
- MIC [6]: 0.003 to 0.15 µg/mL (≈ 0.00583 to 0.291 µM)
- MIC [7]: 0.03 µg/mL (≈ 0.0583 µM)
- MIC [8, 30]: 0.003 to 0.25 µg/mL (≈ 0.00583 to 0.486 µM)
- MIC ([9]; TDG1102, 24 h): 0.003 to 0.5 µg/mL (≈ 0.00583 to 0.972 µM)
- MIC [10]: ≤ 0.003 µg/mL
- MIC [14]: 0.00781 to 0.125 µg/mL (≈ 0.0152 to 0.243 µM)
- MIC [15]: 0.00391 µg/mL (≈ 0.0076 µM)
- MIC [16]: 0.00781 µg/mL (≈ 0.0152 µM)
- MIC [17]: 0.0156 µg/mL (≈ 0.0303 µM)
- MIC [18]: 0.0313 µg/mL (≈ 0.0608 µM)
- MIC [19]: 0.0156 µg/mL (≈ 0.0303 µM)
- MIC [20]: 0.00195 to 0.00781 µg/mL (≈ 0.00379 to 0.0152 µM)
- Activity against Candida auris including resistant strains [23]: highly active
- Effectiveness against the Aspergillus strains tested compared to fluconazole [24]: highly effective
